Test results from patent EP1808169B1, “Polyhydroxylated aromatic compounds for the treatment of amyloidosis and alpha-synuclein fibril diseases” (priority 1999, dated 2001).

Tests used:
Assay type in all cases: biochemical
[1] = tested on: Aβ 1-40 amyloid fibrils; assay: Thioflavin T fluorometry: dose-dependent disassembly/disruption of pre-formed Aβ 1-40 fibrils; conditions: 25 µM pre-fibrillized Aβ 1-40, overnight (~18 hours) at 37°C
From the text: A previously described method of measuring amyloid fibril formation utilizing Thioflavin T fluorometry (H Naiki et al., Lab. Invest. 65:104-110, 1991; H Levine III, Protein Sci. 2:404-410, 1993; H Levine III, Amyloid: Int. J. Exp. Clin. Invest. 2:1-6, 1995; H Naiki and K. Nakakuki, Lab. Invest. 74:374-383, 1996) was employed to identify potential therapeutic compounds capable of causing a disassembly/disruption of Alzheimer's Aβ 1-42 amyloid fibrils. Thioflavin T is known to bind to fibrillar amyloid proteins, and an increase in fluorescence correlates with an increase in amyloid fibril formation, whereas a decrease in fluorescence correlates with a decrease in amyloid fibrils due to disassembly and/or disruption. The Alzheimer's Aβ protein (1-42) when placed in solution, such as distilled water, tends to spontaneously form amyloid fibrils. Using this sensitive assay, any decreases or increases in fluorescence was previously shown to correlate with a decrease or increase in the amount of amyloid fibrils (see the documents cited above), allowing one to identify and quantitate the extent of potential inhibitors and/or enhancers of Alzheimer's Aβ 1-42 amyloid fibrils.
To assess the effects of each compound on potential disassembly/ disruption of preformed Aβ 1-42 fibrils, 50 µl of Aβ 1-42 with or without test compounds (described above) were added to 1.2 ml of 100µM Thioflavin T (Sigma) in 50mM NaH2PO4 (pH 6.0) for fluorometry readings. […] Fluorescence emission at 482 nm was measured on a Turner instrument-model 450 fluorometer at an excitation wavelength of 450 nm. For each determination, the fluorometer was calibrated by zeroing in the presence of the Thioflavin T reagent alone, and by setting the 50 ng/ml riboflavin (Sigma Chemical Co., St. Louis, MO) in the Thioflavin T reagent to 1800 fluorescence units. All fluorescence determinations were based on these references and any fluorescence given off by any of the compounds in the presence of the Thioflavin T reagent was always subtracted from all pertinent readings.
For all fibrillogenesis studies utilizing Thioflavin T fluorometry, as disclosed herein, comparisons of amyloid protein in the presence or absence of test compounds were based on paired Student's t tests with data shown as the mean of triplicate measurements ± standard deviation.
In this study, the potential dose-dependent effects of tannic acid and gallic acid on disassembly/ disruption of pre-formed Aβ 1-40 was assessed. In this experiment, 1 mg of Aβ 1-40 (Bachem Inc., Torrance, CA, USA; Lot # T-20824) was dissolved in 1.0 ml of double distilled water (1 mg/ml solution) and incubated for 4 days at 37°C to spontaneously induce fibril formation. 25 µM of pre-fibrillized Aβ 1-40 was then incubated overnight (~18 hours) at 37°C, in the absence or presence of increasing amounts (25µg/ml, 50µg/ml, 75µg/ml and 100µg/ml) of tannic acid or gallic acid (each in the presence of 150 mM Tris HCl, 10 mM NaCl, pH 7.0, with 0.02% sodium azide). The Aβ:compound weight ratios were therefore 4:1, 2:1, 4:3, and 1:1, respectively, 50 µl aliquots were then added to 1.2 ml of 100µM Thioflavin T (Sigma) in 50mM NaH2PO4 (pH 6.0) for fluorometry readings as described in Example 1 above.

[2] = tested on: Aβ 1-40 amyloid fibrils; assay: Modified Congo red-Aβ spectrophotometric assay: disaggregation of pre-formed Aβ 1-40 fibrils (3 days incubation); conditions: Aβ:compound weight ratio 2:1; fibrillized Aβ 1-40 incubated with compound 3 days at 37°C in TBS pH 7.0; Δ absorbance at 540 nm; triplicate
Procedure: In this study, a Congo red-Aβ spectrophotometric assay (Klunk et al., Anal. Biochem. 266:66-76, 1999) was modified to determine the effectiveness of polyhydroxylated aromatic compounds on the disaggregation of pre-formed Aβ 1-40 amyloid fibrils. For this assay, 1 mg of Aβ 1-40 (Bachem) was incubated for 4 days in distilled water at 37°C to spontaneously produce amyloid fibrils. 25pM of fibrillized Aβ 1-40 was then incubated in triplicate with various test compounds for 3 days at 37°C in Tris-buffered saline (TBS)(100 mM Tris; 50 mM NaCl; pH 7.0, with 0.02% sodium azide), at an Aβ:compound weight ratio of 2:1. Following incubation, 50µl of 360 µM Congo red (Sigma) in distilled water was then added to 250 µl of each incubation mixture, giving a final Aβ:Congo red molar ratio of 1:3. After 10 minutes, the absorbance at 405 nm (reference wavelength to account for the absorbance of Congo red alone at 540 nm) and 540 nm (sample absorbance where "sample" refers to Aβ alone, test compound alone, or Aβ plus test compound, all in the presence of Congo red) was determined using a Biorad Model 550 BLISA Plate Reader (Biorad, Hercules, CA, USA). The absorbance at wavelength 405 nm was automatically subtracted by the ELISA plate reader from the absorbance at wavelength 540 nm (difference is referred to as Δ absorbance)(see Klunk et al. cited above). Therefore, the Δ absorbance reading at 540 nm was proportional to the amount of aggregated Aβ left in solution (Klunk et al.).
For all experiments involving test compounds, the Δ absorbance reading at 540 nm of the test compound alone (in the absence of Aβ), was always subtracted from the corresponding Δ absorbance reading at 540 nm of the test compound in the presence of Aβ. Using this modification of the method of Klunk et al., the use of a greater final concentration of Congo red, i.e. 60µM instead of 14µM, in the presence of fibrillar Aβ gave an overall absorbance at 540 nm that was always below 1.0 Absorbance Unit (AU), and well within the linear absorbance range.
The following polyhydroxylated aromatic containing compounds were tested using the above described Congo red-Aβ spectrophotometric assay to determine their effectiveness on disaggregation of pre-formed Aβ 1-40 amyloid fibrils: 1) gallic acid, 2) ethyl gallate, 3) quinic acid, 4) gallamide trihydrate, 5) ellagic acid, 6) propyl gallate, and 7) pyrogallol.

[3] = biological target: T1, human amylin (Homo sapiens, UniProt P10997); assay: Thioflavin T fluorometry: disassembly/disruption of islet amyloid (amylin) fibrils; conditions: 25 µM human amylin, 100µg/ml compound, amylin:compound weight ratio 1:1, overnight (~18 hours) at 37°C, pH 7.0; read-out: Fluorescence inhibition, %
T1 construct: This amyloid protein involved consists of a 37 amino acid protein known as islet amyloid polypeptide or amylin; purchased Bachem
T1 sequence (P10997 34-70 limits assumed): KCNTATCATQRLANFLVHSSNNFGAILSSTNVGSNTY

[4] = biological target: T1, human amylin; assay: Congo red staining of amylin fibrils on gelatin-coated slides (polarized light); conditions: result in words; amylin + compound after overnight incubation, compared with amylin alone
Procedure: Following Thioflavin T fluorometry readings as described in Example 1, 5µl aliquots of amylin only, amylin + myricetin, amylin + exifone, and amylin + tannic acid were also taken, allowed to air dry overnight on gelatin-coated slides, and stained with Congo red as previously described (Castillo et al., Diabetes 47:612-620, 1998).

[5] = Aβ:compound w/w ratio 1:1 (100µg/ml compound)
[6] = Aβ:compound w/w ratio 2:1 (50µg/ml compound)
[7] = Aβ:compound w/w ratio 4:1 (25µg/ml compound)
[8] = Aβ:compound w/w ratio 4:3 (75µg/ml compound)

| SMILES | Fluorescence inhibition, %, at the Aβ 1.40:compound w/wratios given [1, 5] [%] | Fluorescence inhibition, %, at the Aβ 1.40:compound w/wratios given [1, 6] [%] | Fluorescence inhibition, %, at the Aβ 1.40:compound w/wratios given [1, 7] [%] | Fluorescence inhibition, %, at the Aβ 1.40:compound w/wratios given [1, 8] [%] | Decrease in absorbance, % [2] [%] | inhibition at 100 µg/mL [3] [%] | Congo red staining [4] |
| --- | --- | --- | --- | --- | --- | --- | --- |
| O=C(O)c1cc(O)c(O)c(O)c1 [Gallic acid, gallic acid] | 45 ± 4.1 | 22 ± 3.3 | 14 ± 8.2 | 34 ± 3.6 | 52 ± 0.4 |  |  |
| O=C(OC[C@H]1O[C@@H](OC(=O)c2cc(O)c(O)c(OC(=O)c3cc(O)c(O)c(O)c3)c2)[C@H](OC(=O)c2cc(O)c(O)c(OC(=O)c3cc(O)c(O)c(O)c3)c2)[C@@H](OC(=O)c2cc(O)c(O)c(OC(=O)c3cc(O)c(O)c(O)c3)c2)[C@@H]1OC(=O)c1cc(O)c(O)c(OC(=O)c2cc(O)c(O)c(O)c2)c1)c1cc(O)c(O)c(OC(=O)c2cc(O)c(O)c(O)c2)c1 [Tannic acid, tannic acid] | 53 ± 4.2 | 42 ± 2.8 | 31 ± 4.8 | 49 ± 3.7 |  | 83.8 ± 1.4 | marked decrease in Congo red staining |
